How the values were obtained:
Format in all cases: in vivo
[1] = tested on: Barnyardgrass; experiment: post-emergent herbicidal activity, greenhouse; details: 4 WAT
Outline: (§1)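 Post-emergence foliar spray at tabulated application rates, using aliquots of a 1.0% stock in acetone, THF or water plus ~0.4% emulsifier, applied to 2–3-week-old greenhouse plants. Plant injury was rated relative to controls roughly two and four weeks after treatment.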

[2] = tested on: Cocklebur; experiment: post-emergent herbicidal activity, greenhouse; details: Table II, 4 WAT
Outline: as §1

[3] = tested on: Crabgrass; experiment: post-emergent herbicidal activity, greenhouse; details: Table II, 4 WAT
Outline: as §1

[4] = tested on: Downy Brome; experiment: post-emergent herbicidal activity, greenhouse; details: Table II, 4 WAT
Outline: as §1

[5] = tested on: Hemp Sesbania; experiment: post-emergent herbicidal activity, greenhouse; details: Table II, 4 WAT
Outline: as §1

[6] = tested on: Lambsquarters; experiment: post-emergent herbicidal activity, greenhouse; details: 4 WAT
Outline: as §1

[7] = tested on: Morningglory; experiment: post-emergent herbicidal activity, greenhouse; details: 4 WAT
Outline: as §1

[8] = tested on: Panicum Spp; experiment: post-emergent herbicidal activity, greenhouse; details: Table II, 4 WAT
Outline: as §1

[9] = tested on: Quackgrass; experiment: post-emergent herbicidal activity, greenhouse; details: Table I, 4 WAT, 11.2 kg/h
Outline: as §1

[10] = tested on: Rice; experiment: post-emergent herbicidal activity, greenhouse; details: Table II, 4 WAT
Outline: as §1

[11] = tested on: Smartweed; experiment: post-emergent herbicidal activity, greenhouse; details: 4 WAT
Outline: as §1

[12] = tested on: Sorghum; experiment: post-emergent herbicidal activity, greenhouse; details: Table II, 4 WAT
Outline: as §1

[13] = tested on: Soybean; experiment: post-emergent herbicidal activity, greenhouse; details: Table II, 4 WAT
Outline: as §1

[14] = tested on: Sugar Beet; experiment: post-emergent herbicidal activity, greenhouse; details: Table II, 4 WAT
Outline: as §1

[15] = tested on: Velvetleaf; experiment: post-emergent herbicidal activity, greenhouse; details: 4 WAT
Outline: as §1

[16] = tested on: Wheat; experiment: post-emergent herbicidal activity, greenhouse; details: Table II, 4 WAT
Outline: as §1

[17] = tested on: Wild Buckwheat; experiment: post-emergent herbicidal activity, greenhouse; details: Table II, 4 WAT
Outline: as §1

[18] = tested on: Yellow Nutsedge; experiment: post-emergent herbicidal activity, greenhouse; details: Table I, 4 WAT, 5.6 kg/h
Outline: as §1

[19] = tested on: Barnyardgrass; experiment: pre-emergent herbicidal activity, soil incorporation; details: Table III, 2 WAT, 11.2 kg/h
Description: (§2) A good grade of top soil is placed in aluminum pans and compacted to a depth of 0.95 to 1.27 cm. from the top of each pan. A predetermined number of seeds or vegetative propagules of each of several plant species are placed on top of the soil in each pan and then pressed down. Herbicidal compositions prepared as in the previous example are applied by admixture with or incorporation in the top layer of soil.
(§3) In this method, the soil required to cover the seeds and propagules is weighed and admixed with a herbicidal composition containing a known amount of the active ingredient (compound of this invention). The pans are then filled with the admixture and leveled. Watering is carried out by permitting the soil in the pans to absorb moisture through apertures in the pan bottoms. The seed and propagule containing pans are placed on a wet sand bench and maintained for approximately two weeks under ordinary conditions of sunlight and watering. At the end of this period, the number of emerged plants of each species is noted and compared to an untreated control.
(§4) The pre-emergent herbicidal activity index used below is based upon average percent control of each species as follows: […]

[20] = tested on: Canada Thistle; experiment: as above; details: Table III, 2 WAT, 11.2 kg/h
Description: as §2, §3, §4

[21] = tested on: Cocklebur; experiment: as above; details: Table III, 2 WAT, 11.2 kg/h
Description: as §2, §3, §4

[22] = tested on: Downy Brome; experiment: as above; details: Table III, 2 WAT, 11.2 kg/h
Description: as §2, §3, §4

[23] = tested on: Johnsongrass; experiment: as above; details: Table III, 2 WAT, 11.2 kg/h
Description: as §2, §3, §4

[24] = tested on: Lambsquarters; experiment: as above; details: Table III, 2 WAT, 11.2 kg/h
Description: as §2, §3, §4

[25] = tested on: Morningglory; experiment: as above; details: Table III, 2 WAT, 11.2 kg/h
Description: as §2, §3, §4

[26] = tested on: Quackgrass; experiment: as above; details: Table III, 2 WAT, 11.2 kg/h
Description: as §2, §3, §4

[27] = tested on: Smartweed; experiment: as above; details: Table III, 2 WAT, 11.2 kg/h
Description: as §2, §3, §4

[28] = tested on: Velvetleaf; experiment: as above; details: Table III, 2 WAT, 11.2 kg/h
Description: as §2, §3, §4

[29] = tested on: Yellow Nutsedge; experiment: as above; details: Table III, 2 WAT, 11.2 kg/h
Description: as §2, §3, §4

SMILES: CCOC(=O)CNCP(=O)(O)OC(C)C#N (stereo not drawn) [Example 5, glycine, N-[[(1-cyanoethoxy)hydroxy-phosphinyl]methyl]ethyl ester]
- post-emergent herbicidal activity index ([1]; Table I, 5.6 kg/h): 4 (100% control)
- post-emergent herbicidal activity index ([1]; Table I, 11.2 kg/h): 4 (100% control)
- post-emergent herbicidal activity index ([1]; Table II, 0.28 kg/h): 3 (75-99% control)
- post-emergent herbicidal activity index ([1]; Table II, 1.12 kg/h): 3 (75-99% control)
- post-emergent herbicidal activity index ([1]; Table II, 5.6 kg/h): 4 (100% control)
- post-emergent herbicidal activity index ([2]; 0.28 kg/h): 2 (50-74% control)
- post-emergent herbicidal activity index ([2]; 1.12 kg/h): 2 (50-74% control)
- post-emergent herbicidal activity index ([2]; 5.6 kg/h): 4 (100% control)
- post-emergent herbicidal activity index ([3]; 0.28 kg/h): 3 (75-99% control)
- post-emergent herbicidal activity index ([3]; 1.12 kg/h): 4 (100% control)
- post-emergent herbicidal activity index ([3]; 5.6 kg/h): 4 (100% control)
- post-emergent herbicidal activity index ([4]; 0.28 kg/h): 1 (25-49% control)
- post-emergent herbicidal activity index ([4]; 1.12 kg/h): 2 (50-74% control)
- post-emergent herbicidal activity index ([4]; 5.6 kg/h): 3 (75-99% control)
- post-emergent herbicidal activity index ([5]; 0.28 kg/h): 1 (25-49% control)
- post-emergent herbicidal activity index ([5]; 1.12 kg/h): 2 (50-74% control)
- post-emergent herbicidal activity index ([5]; 5.6 kg/h): 3 (75-99% control)
- post-emergent herbicidal activity index ([6]; Table I, 11.2 kg/h): 4 (100% control)
- post-emergent herbicidal activity index ([6]; Table II, 0.28 kg/h): 2 (50-74% control)
- post-emergent herbicidal activity index ([6]; Table II, 1.12 kg/h): 4 (100% control)
- post-emergent herbicidal activity index ([6]; Table II, 5.6 kg/h): 4 (100% control)
- post-emergent herbicidal activity index ([7]; Table I, 5.6 kg/h): 3 (75-99% control)
- post-emergent herbicidal activity index ([7]; Table I, 11.2 kg/h): 4 (100% control)
- post-emergent herbicidal activity index ([7]; Table II, 0.28 kg/h): 2 (50-74% control)
- post-emergent herbicidal activity index ([7]; Table II, 1.12 kg/h): 2 (50-74% control)
- post-emergent herbicidal activity index ([7]; Table II, 5.6 kg/h): 4 (100% control)
- post-emergent herbicidal activity index ([8]; 0.28 kg/h): 3 (75-99% control)
- post-emergent herbicidal activity index ([8]; 1.12 kg/h): 4 (100% control)
- post-emergent herbicidal activity index ([8]; 5.6 kg/h): 4 (100% control)
- post-emergent herbicidal activity index [9]: 4 (100% control)
- post-emergent herbicidal activity index ([10]; 0.28 kg/h): 0 (0-24% control)
- post-emergent herbicidal activity index ([10]; 1.12 kg/h): 2 (50-74% control)
- post-emergent herbicidal activity index ([10]; 5.6 kg/h): 4 (100% control)
- post-emergent herbicidal activity index ([11]; Table I, 5.6 kg/h): 4 (100% control)
- post-emergent herbicidal activity index ([11]; Table I, 11.2 kg/h): 4 (100% control)
- post-emergent herbicidal activity index ([11]; Table II, 0.28 kg/h): 2 (50-74% control)
- post-emergent herbicidal activity index ([11]; Table II, 1.12 kg/h): 4 (100% control)
- post-emergent herbicidal activity index ([11]; Table II, 5.6 kg/h): 4 (100% control)
- post-emergent herbicidal activity index ([12]; 0.28 kg/h): 3 (75-99% control)
- post-emergent herbicidal activity index ([12]; 1.12 kg/h): 3 (75-99% control)
- post-emergent herbicidal activity index ([12]; 5.6 kg/h): 4 (100% control)
- post-emergent herbicidal activity index ([13]; 0.28 kg/h): 1 (25-49% control)
- post-emergent herbicidal activity index ([13]; 1.12 kg/h): 2 (50-74% control)
- post-emergent herbicidal activity index ([13]; 5.6 kg/h): 4 (100% control)
- post-emergent herbicidal activity index ([14]; 0.28 kg/h): 1 (25-49% control)
- post-emergent herbicidal activity index ([14]; 1.12 kg/h): 2 (50-74% control)
- post-emergent herbicidal activity index ([14]; 5.6 kg/h): 4 (100% control)
- post-emergent herbicidal activity index ([15]; Table I, 11.2 kg/h): 4 (100% control)
- post-emergent herbicidal activity index ([15]; Table II, 0.28 kg/h): 1 (25-49% control)
- post-emergent herbicidal activity index ([15]; Table II, 1.12 kg/h): 2 (50-74% control)
- post-emergent herbicidal activity index ([15]; Table II, 5.6 kg/h): 4 (100% control)
- post-emergent herbicidal activity index ([16]; 0.28 kg/h): 1 (25-49% control)
- post-emergent herbicidal activity index ([16]; 1.12 kg/h): 3 (75-99% control)
- post-emergent herbicidal activity index ([16]; 5.6 kg/h): 4 (100% control)
- post-emergent herbicidal activity index ([17]; 0.28 kg/h): 0 (0-24% control)
- post-emergent herbicidal activity index ([17]; 1.12 kg/h): 2 (50-74% control)
- post-emergent herbicidal activity index ([17]; 5.6 kg/h): 4 (100% control)
- post-emergent herbicidal activity index [18]: 3 (75-99% control)
- pre-emergent herbicidal activity index [19]: 0 (1-24% control)
- pre-emergent herbicidal activity index [20]: 3 (75-100% control)
- pre-emergent herbicidal activity index [21]: 0 (1-24% control)
- pre-emergent herbicidal activity index [22]: 0 (1-24% control)
- pre-emergent herbicidal activity index [23]: 0 (1-24% control)
- pre-emergent herbicidal activity index [24]: 3 (75-100% control)
- pre-emergent herbicidal activity index [25]: 0 (1-24% control)
- pre-emergent herbicidal activity index [26]: 2 (50-74% control)
- pre-emergent herbicidal activity index [27]: 0 (1-24% control)
- pre-emergent herbicidal activity index [28]: 0 (1-24% control)
- pre-emergent herbicidal activity index [29]: 1 (25-49% control)
